This note sets out measurements from patent publication US20080096848A1, “Substituted N-Aryl-9-Oxo-9H-Fluorene-1-Carboxamides and Analogs as Activators of Caspases and Inducers of Apoptosis” (CYTOVIA INC., priority 2004, published 2008).

Like-named read-outs stand apart in the source and are kept apart here.

As a reminder, the EC50 is the concentration that produces a half-maximal response.

The test system of test [1] is T-47D. Kind of test: Caspase cascade activation assay (Ac-DEVD-R110 fluorogenic substrate) in T-47D cells. The test is classed as cell-based, Human. As to conditions: 24 h incubation; for Caspase activity (Ratio): ratio of net RFU (T=3 h) of test compound to control, 0.16 to 10 μM final; for EC50: sigmoidal dose-response, read-out: Caspase potency EC50. On the procedure:
Human breast cancer cell lines T-47D was grown according to media component mixtures designated by American Type Culture Collection+10% FCS (Invitrogen Corporation), in a 5% CO2-95% humidity incubator at 37° C. T-47D and ZR-75-1 cells were maintained at a cell density between 30 and 80% confluency and for HL-60 at a cell density of 0.1 to 0.6×10^6 cells/mL. Cells were harvested at 600×g and resuspended at 0.65×10^6 cells/mL into appropriate media+10% FCS. An aliquot of 45 μL of cells was added to a well of a 96-well microtiter plate containing 5 μL of a 10% DMSO in RPMI-1640 media solution containing 1.6 to 100 μM of N-(2-methylphenyl)-9-oxo-9H-fluorene-1-carboxamide or other test compound (0.16 to 10 μM final). An aliquot of 45 μL of cells was added to a well of a 96-well microtiter plate containing 5 μL of a 10% DMSO in RPMI-1640 media solution without test compound as the control sample. The samples were mixed by agitation and then incubated at 37° C. for 24 h in a 5% CO2-95% humidity incubator. After incubation, the samples were removed from the incubator and 50 μL of a solution containing 20 μM of N—(Ac-DEVD)-N′-ethoxycarbonyl-R110 fluorogenic substrate (SEQ ID NO:1) (Cytovia, Inc.; U.S. Pat. No. 6,335,429), 20% sucrose (Sigma), 20 mM DTT (Sigma), 200 mM NaCl (Sigma), 40 mM Na PIPES buffer pH 7.2 (Sigma), and 500 μg/mL lysolecithin (Calbiochem) was added. The samples were mixed by agitation and incubated at room temperature. Using a fluorescent plate reader (Model 1420 Wallac Instruments), an initial reading (T=0) was made about 1-2 min after addition of the substrate solution, employing excitation at 485 nm and emission at 530 nm, to determine the background fluorescence of the control sample. After about 3 h of incubation, the samples were read for fluorescence as above (T=3 h).
The Relative Fluorescence Unit values (RFU) were used to calculate the sample readings as follows: RFU(T=3h)−Control RFU(T=0)=Net RFU(T=3h)
The activity of caspase cascade activation was determined by the ratio of the net RFU value for N-(2-methylphenyl)-9-oxo-9H-fluorene-1-carboxamide and other test compounds to that of control samples. The EC50 (nM) was determined by a sigmoidal dose-response calculation (Prism 2.0, GraphPad Software Inc.).

The test system of test [2] is T-47D. In words: Inhibition of cell proliferation (GI50), CellTiter 96 AQueous One, T-47D cells. The test is classed as cell-based. The conditions noted are these: Homo sapiens, T47D, 48 h incubation, read-out: GI50 (dose for 50% inhibition of cell proliferation). Here is the method:
(§1) T-47D and MX1 cells were grown and harvested as in Example 39. An aliquot of 90 μL of cells (2.2×10^4 cells/mL) was added to a well of a 96-well microtiter plate containing 10 μl of a 10% DMSO in RPMI-1640 media solution containing 1 nM to 100 μM of N-(2-methylphenyl)-9-oxo-9H-fluorene-1-carboxamide (0.1 nM to 10 μM final) or other test compound. An aliquot of 90 μL of cells was added to a well of a 96-well microtiter plate containing 10 μL of a 10% DMSO in RPMI-1640 media solution without compound as the control sample for maximal cell proliferation (AMax). The samples were mixed by agitation and then incubated at 37° C. for 48 h in a 5% CO2-95% humidity incubator. After incubation, the samples were removed from the incubator and 20 μL of CellTiter 96 AQUEOUS One Solution Cell Proliferation™ reagent (Promega) was added. The samples were mixed by agitation and incubated at 37° C. for 2-4 h in a 5% CO2-95% humidity incubator. Using an absorbance plate reader (Model 1420 Wallac Instruments), an initial reading (T=0) was made about 1-2 min after addition of the solution, employing absorbance at 490 nm. This determines the possible background absorbance of the test compounds. No absorbance for N-(2-methylphenyl)-9-oxo-9H-fluorene-1-carboxamide was found at 490 nm. After the 2-4 h incubation, the samples were read for absorbance as above (ATest).
(§2) Baseline for GI50 (dose for 50% inhibition of cell proliferation) of initial cell numbers were determined by adding an aliquot of 90 μL of cells or 90 μL of media, respectively, to wells of a 96-well microtiter plate containing 10 μL of a 10% DMSO in RPMI-1640 media solution. The samples were mixed by agitation and then incubated at 37° C. for 0.5 h in a 5% CO2-95% humidity incubator. After incubation, the samples were removed from the incubator and 20 μL of CellTiter 96 AQUEOUS One Solution Cell Proliferation™ reagent (Promega) was added. The samples were mixed by agitation and incubated at 37° C. for 2-4 h in a 5% CO2-95% humidity incubator. Absorbance was read as above, (AStart) defining absorbance for initial cell number used as baseline in GI50 determinations.
(§3) GI50 (dose for 50% inhibition of cell proliferation) is the concentration where [(ATest−Astart)/(AMax−Astart)]=0.5.

In the next test the test system is MX1. Kind of test: Inhibition of cell proliferation (GI50), CellTiter 96 AQueous One, MX1 cells. The conditions noted are these: Homo sapiens, 48 h incubation, read-out: GI50 (dose for 50% inhibition of cell proliferation). Format: cell-based. On the procedure: as §1, §2, §3

Consider `O=C(Nc1ccccc1-n1cccn1)c1cccc2sc3ccccc3c12` [Example 32, N-(2-(1H-Pyrazol-1-yl)phenyl)-dibenzothiophene-1-carboxamide], for which, in the test with T-47D [1], the “Caspase activity (Ratio)” value was found to be 2.7. For the same molecule, the EC50 in the test with T-47D [1] (Homo sapiens, T47D, 24 h) amounted to 1280 nM. Also, the results for the GI50 in the test with T-47D [2] and in the test with MX1 were 2470 nM and 4350 nM, respectively.
For `[N-]=[N+]=Nc1ccc2c(c1)C(=O)c1c(C(=O)Nc3ccccc3-n3cccn3)cccc1-2` [Example 37, 7-Azido-N-(2-(1H-pyrazol-1-yl)phenyl)-9-oxo-9H-fluorene-1-carboxamide] the same measures were 3.0, 681 nM, 415 nM and 200 nM.
Turning to `O=C(Nc1ccccc1-n1cccn1)c1cccc2c1C(=O)c1cc([N+](=O)[O-])ccc1-2` [Example 29, 7-Nitro-N-(2-(1H-pyrazol-1-yl)phenyl)-9-oxo-9H-fluorene-1-carboxamide], the “Caspase activity (Ratio)” value in the test on T-47D [1] is 5.3. In addition, the 50% effective concentration (EC50) in the test on T-47D [1] (Homo sapiens, T47D, 24 h) came out at 231 nM. Moreover, the figures for the GI50 in the test with T-47D [2] and in the test on MX1 were 166 nM and 150 nM, respectively.
Consider `O=C(Nc1ccccc1-n1cc(Br)cn1)c1cccc2c1C(=O)c1cc([N+](=O)[O-])ccc1-2` [Example 38, N-(2-(4-Bromo-1H-pyrazol-1-yl)phenyl)-7-nitro-9-oxo-9H-fluorene-1-carboxamide], for which, in the test on T-47D [1], the “Caspase activity (Ratio)” value came out at 8.0. Moreover, the concentration for a half-maximal effect (EC50) in the test with T-47D [1] (Homo sapiens, T47D, 24 h) was found to be 302 nM. The GI50 in the test on T-47D [2] was found to be 429 nM; with MX1, 315 nM.
For `O=C(Nc1ccccc1-n1cccn1)c1cccc2c1C(=O)c1ccccc1-2` [Example 9, N-(2-(1H-Pyrazol-1-yl)-phenyl)-9-oxo-9H-fluorene-1-carboxamide] the same measures were 7.7, 979 nM, 451 nM and 1000 nM.
For `[N-]=[N+]=Nc1ccccc1NC(=O)c1cccc2c1C(=O)c1ccccc1-2` [Example 27, N-(2-Azido-phenyl)-9-oxo-9H-fluorene-1-carboxamide] the same measures were 4.0, 1400 nM, 45 nM and 90 nM.
Regarding `Cc1cccc(NC(=O)c2cccc3c2C(=O)c2ccccc2-3)c1` [N-(3-Methylphenyl)-9-oxo-9H-fluorene-1-carboxamide], in the test on T-47D [1], the “Caspase activity (Ratio)” value was 1.3. Further, in the test with T-47D [1] (Homo sapiens, T47D, 24 h), the EC50 was greater than 10000 nM.
With `CN(C)Cc1ccccc1NC(=O)c1cccc2c1C(=O)c1ccccc1-2` [Example 20, N-(2-Dimethylaminomethylphenyl)-9-oxo-9H-fluorene-1-carboxamide], in the test on T-47D [1], the “Caspase activity (Ratio)” value is listed as 6.7 and the EC50 is 697 nM. The GI50 in the test on T-47D [2] was determined as 233 nM. Moreover, the GI50 in the test with MX1 is 8000 nM.
Regarding `COc1ccccc1NC(=O)c1cccc2c1C(=O)c1ccccc1-2` [Example 15, N-(2-Methoxyphenyl)-9-oxo-9H-fluorene-1-carboxamide], the “Caspase activity (Ratio)” value in the test on T-47D [1] is recorded as 6.6. In addition, the concentration for a half-maximal effect (EC50) in the test with T-47D [1] (Homo sapiens, T47D, 24 h) is 577 nM. Also, the GI50 in the test with T-47D [2] was 600 nM; with MX1, 2000 nM.
As for `Cc1ccccc1N(C)C(=O)c1cccc2c1C(=O)c1ccccc1-2` [Example 17, N-Methyl-N-(2-methylphenyl)-9-oxo-9H-fluorene-1-carboxamide], in the test with T-47D [1], the “Caspase activity (Ratio)” value is reported as 1.4. The EC50 with T-47D [1] (Homo sapiens, T47D, 24 h) is greater than 10000 nM.
With `O=C(Nc1ccccc1-c1ccccc1)c1cccc2c1C(=O)c1ccccc1-2` [N-(2-Phenylphenyl)-9-oxo-9H-fluorene-1-carboxamide], the “Caspase activity (Ratio)” value with T-47D [1] is 8.1. In addition, the EC50 in the test on T-47D [1] (Homo sapiens, T47D, 24 h) turned out to be 1500 nM.
Consider `Cc1ccccc1NC(=O)c1cccc2c1C(=O)c1ccccc1-2` [Example A, N-(2-Methylphenyl)-9-oxo-9H-fluorene-1-carboxamide], for which the “Caspase activity (Ratio)” value in the test on T-47D [1] is listed as 11.2. Further, in the test on T-47D [1] (Homo sapiens, T47D, 24 h), the EC50 is 570 nM. In addition, the GI50 was 146 nM with T-47D [2] and 549 nM in the test with MX1.
As for `O=C(Nc1ccccc1CBr)c1cccc2c1C(=O)c1ccccc1-2` [Example 14, N-(2-Bromomethylphenyl)-9-oxo-9H-fluorene-1-carboxamide], in the test on T-47D [1], the “Caspase activity (Ratio)” value came out at 5.7. For the same molecule, the concentration for a half-maximal effect (EC50) in the test on T-47D [1] (Homo sapiens, T47D, 24 h) came to 2880 nM.
As to `O=C(Nc1ccccc1-n1cccn1)c1cccc2sc3c(c12)C(=O)CC=C3` [Example 34, 9-Oxo-N-(2-(1H-pyrazol-1-yl)phenyl)-dibenzothiophene-1-carboxamide], the “Caspase activity (Ratio)” value with T-47D [1] is given as 1.2. Besides, the concentration giving a half-maximal response (EC50) in the test with T-47D [1] (Homo sapiens, T47D, 24 h) was greater than 10000 nM.
Take `O=C(Nc1ccccc1-n1cccc1)c1cccc2c1C(=O)c1ccccc1-2` [Example 2, N-(2-(1H-Pyrrolo-1-yl)-phenyl)-9-oxo-9H-fluorene-1-carboxamide]: in the test on T-47D [1], the “Caspase activity (Ratio)” value is 4.2 and the EC50 came out at 2230 nM.
As to `Nc1ccc2c(c1)C(=O)c1c(C(=O)Nc3ccccc3-n3cccn3)cccc1-2` [Example 30, 7-Amino-N-(2-(1H-pyrazol-1-yl)phenyl)-9-oxo-9H-fluorene-1-carboxamide], the “Caspase activity (Ratio)” value in the test on T-47D [1] is on record as 4.4. The EC50 in the test with T-47D [1] (Homo sapiens, T47D, 24 h) was found to be 881 nM.
Turning to `CN1CCN(Cc2ccccc2NC(=O)c2cccc3c2C(=O)c2ccccc2-3)CC1` [Example 22, N-(2-(4-Methylpiperazin-1-yl-methyl)phenyl)-9-oxo-9H-fluorene-1-carboxamide], the “Caspase activity (Ratio)” value in the test with T-47D [1] amounted to 1.0. Also, the EC50 in the test with T-47D [1] (Homo sapiens, T47D, 24 h) is greater than 10000 nM.
For `Cc1cccc(C)c1NC(=O)c1cccc2c1C(=O)c1ccccc1-2` [Example 7, N-(2,6-Dimethylphenyl)-9-oxo-9H-fluorene-1-carboxamide], the “Caspase activity (Ratio)” value in the test with T-47D [1] is 1.4. For the same molecule, in the test on T-47D [1] (Homo sapiens, T47D, 24 h), the EC50 was greater than 10000 nM.
For the molecule `CN(C(=O)c1cccc2c1C(=O)c1ccccc1-2)c1ccccc1-n1cccn1` [Example 28, N-Methyl-N-(2-(1H-pyrazol-1-yl)phenyl)-9-oxo-9H-fluorene-1-carboxamide], the “Caspase activity (Ratio)” value with T-47D [1] was determined as 1.2. For the same molecule, in the test with T-47D [1] (Homo sapiens, T47D, 24 h), the EC50 is greater than 10000 nM. The GI50 with T-47D [2] and with MX1 was greater than 10000 nM each time.
In the case of `Cc1ccccc1NC(=O)c1cccc2c1Cc1ccccc1-2` [Example 13, N-(2-Methylphenyl)-9H-fluorene-1-carboxamide], in the test with T-47D [1], the “Caspase activity (Ratio)” value is on record as 6.0. In the test with T-47D [1] (Homo sapiens, T47D, 24 h), the half-maximal effective concentration (EC50) was determined as 1100 nM. Further, the GI50 worked out at 5040 nM with T-47D [2] and 6000 nM in the test on MX1.
